According to US20210317092A1 (BAYER PHARMA AKTIENGESELLSCHAFT, priority 2016, published 2021):

Target: T1, human Bradykinin B1 receptor (Homo sapiens, UniProt P46663)
T1 construct: host or cells: CHO-K1
T1 sequence (P46663 1-353): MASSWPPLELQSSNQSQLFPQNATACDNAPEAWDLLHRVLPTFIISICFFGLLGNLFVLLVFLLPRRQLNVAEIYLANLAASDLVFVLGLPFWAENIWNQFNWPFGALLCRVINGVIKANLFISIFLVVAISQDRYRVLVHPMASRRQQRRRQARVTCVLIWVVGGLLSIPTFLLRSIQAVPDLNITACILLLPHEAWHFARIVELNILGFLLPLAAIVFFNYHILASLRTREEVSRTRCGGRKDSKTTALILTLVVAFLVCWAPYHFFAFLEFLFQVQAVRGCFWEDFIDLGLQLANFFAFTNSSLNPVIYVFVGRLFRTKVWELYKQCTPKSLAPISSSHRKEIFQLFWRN
Assay: Calcium flux Assay (FLIPR) with recombinant CHO-K1 cells expressing human Bradykinin B1 receptor, in presence (hB1 IC50) or absence (hB1 free IC50) of 0.1% BSA
Assay type: cell-based
Settings: in absence of 0.1% BSA, read-out: hB1 free IC50

IC50 [nM] | Compound
122 | O=C(Nc1ccc(-n2ccc(C(F)(F)F)n2)c(-c2nnn[nH]2)c1)C1(c2ccc(C(F)(F)F)cc2F)CC1 [Example 348, 1-[2-Fluoro-4-(trifluoromethyl)phenyl]-N-{3-(1H-tetrazol-5-yl)-4-[3-(trifluoromethyl)-1H-pyrazol-1-yl]phenyl}cyclopro-panecarboxa-mide]
590 | O=C(Nc1ccc(-n2cc(C(F)(F)F)cn2)c(-c2nnn[nH]2)c1)C1(c2cccc(Cl)c2)CC1 [Example 349, 1-(3-Chlorophenyl)-N-{3-(1H-tetrazol-5-yl)-4-[4-(trifluoromethyl)-1H-pyrazol-1-yl]phenyl}cyclopro-panecarboxa-mide]
804 | O=C(Nc1ccc(-n2cc(C(F)F)cn2)c(-c2nnn[nH]2)c1)C1(c2cccc(Cl)c2)CC1 [Example 350, 1-(3-Chlorophenyl)-N-{4-[4-(difluoromethyl)-1H-pyrazol-1-yl]-3-(1H-tetrazol-5-yl)phenyl}cyclopro-panecarboxa-mide]
1060 | O=C(Nc1ccc(-n2cc(C(F)(F)F)cn2)c(-c2nnn[nH]2)c1)C1(c2ccc(F)c(F)c2)CC1 [Example 351, 1-(3,4-Difluorophenyl)-N-{3-(1H-tetrazol-5-yl)-4-[4-(trifluoromethyl)-1H-pyrazol-1-yl]phenyl}cyclopro-panecarboxa-mide]
1200 | O=C(Nc1ccc(-n2cnc(C(F)(F)F)c2)c(-c2nnn[nH]2)c1)C1(c2cccc(Cl)c2)CC1 [Example 352, 1-(3-Chlorophenyl)-N-{3-(1H-tetrazol-5-yl)-4-[4-(trifluoromethyl)-1H-imidazol-1-yl]phenyl}cyclopro-panecarboxa-mide]
1210 | O=C(Nc1ccc(-n2cc(C(F)F)cn2)c(-c2nnn[nH]2)c1)C1(c2ccc(F)c(F)c2)CC1 [Example 353, N-{4-[4-(Difluoromethyl)-1H-pyrazol-1-yl]-3-(1H-tetrazol-5-yl)phenyl}-1-(3,4-difluorophenyl)cy-clopropanecar-boxamide]
1880 | O=C(Nc1ccc(-n2ccc(C(F)(F)F)n2)c(-c2nnn[nH]2)c1)C1(c2cccc(Cl)c2)CC1 [Example 354, 1-(3-Chlorophenyl)-N-{3-(1H-tetrazol-5-yl)-4-[3-(trifluoromethyl)-1H-pyrazol-1-yl]phenyl}cyclopro-panecarboxa-mide]
1880 | O=C(Nc1ccc(-n2ccc(C(F)(F)F)n2)c(-c2nnn[nH]2)c1)C1(c2ccc(F)c(F)c2)CC1 [Example 355, 1-(3,4-Difluorophenyl)-N-{3-(1H-tetrazol-5-yl)-4-[3-(trifluoromethyl)-1H-pyrazol-1-yl]phenyl}cyclopro-panecarboxa-mide]
2350 | O=C(Nc1ccc(-n2cnc(C(F)(F)F)c2)c(-c2nnn[nH]2)c1)C1(c2ccc(F)c(F)c2)CC1 [Example 356, 1-(3,4-Difluorophenyl)-N-{3-(1H-tetrazol-5-yl)-4-[4-(trifluoromethyl)-1H-imidazol-1-yl]phenyl}cyclopro-panecarboxa-mide]
44.8 | O=C(Nc1ccc(-n2cnc(C3CCC3)n2)c(-c2nnn[nH]2)c1)C1(c2cccc(Cl)c2)CC1 [Example 357, 1-(3-chlorophenyl)-N-[4-(3-cyclobutyl-1H-1,2,4-triazol-1-yl)-3-(1H-tetrazol-5-yl)phenyl]cyclopro-panecarboxa-mide]
2970 | O=C(Nc1ccc(-n2cnc(C(F)(F)F)n2)c(-c2nnn[nH]2)c1)C1(c2ccc(F)c(F)c2)CC1 [Example 358, 1-(3,4-difluorophenyl)-N-{3-(1H-tetrazol-5-yl)-4-[3-(trifluoromethyl)-1H-1,2,4-triazol-1-yl]phenyl}cyclopro-panecarboxa-mide]
676 | Cc1nc(C(F)(F)F)nn1-c1ccc(NC(=O)C2(c3cccc(Cl)c3)CC2)cc1-c1nnn[nH]1 [Example 359, 1-(3-chlorophenyl)-N-{4-[5-methyl-3-(trifluoromethyl)-1H-1,2,4-triazol-1-yl]-3-(1H-tetrazol-5-yl)phenyl}cyclopro-panecarboxa-mide]
1700 | Cc1nc(C(F)(F)F)nn1-c1ccc(NC(=O)C2(c3ccc(F)c(F)c3)CC2)cc1-c1nnn[nH]1 [Example 360, 1-(3,4-difluorophenyl)-N-{4-[5-methyl-3-(trifluoromethyl)-1H-1,2,4-triazol-1-yl]-3-(1H-tetrazol-5-yl)phenyl}cyclopro-panecarboxa-mide]
419 | O=C(Nc1ccc(-n2cc(C(F)(F)F)nn2)c(-c2nnn[nH]2)c1)C1(c2ccc(C(F)(F)F)cc2F)CC1 [Example 361, 1-[2-fluoro-4-(trifluoromethyl)phenyl]-N-{3-(1H-tetrazol-5-yl)-4-[4-(trifluoromethyl)-1H-1,2,3-triazol-1-yl]phenyl}cyclopro-panecarboxa-mide]
26.4 | O=C(Nc1ccc(-n2cnc(C(F)(F)F)c2)c(-c2nnn[nH]2)c1)C1(c2ccc(OC(F)(F)F)cc2F)CC1 [Example 362, 1-[2-Fluoro-4-(trifluoromethoxy)phenyl]-N-{3-(1H-tetrazol-5-yl)-4-[4-(trifluoromethyl)-1H-imidazol-1-yl]phenyl}cyclopro-panecarboxa-mide]
37.1 | O=C(Nc1ccc(-n2ccc(C(F)(F)F)n2)c(-c2nnn[nH]2)c1)C1(c2ccc(OC(F)(F)F)cc2F)CC1 [Example 363, 1-[2-Fluoro-4-(trifluoromethoxy)phenyl]-N-{3-(1H-tetrazol-5-yl)-4-[3-(trifluoromethyl)-1H-pyrazol-1-yl]phenyl}cyclopro-panecarboxa-mide]
12.7 | O=C(Nc1ccc(-n2cc(C(F)(F)F)cn2)c(-c2nnn[nH]2)c1)C1(c2ccc(OC(F)(F)F)cc2F)CC1 [Example 364, 1-[2-fluoro-4-(trifluoromethoxy)phenyl]-N-{3-(1H-tetrazol-5-yl)-4-[4-(trifluoromethyl)-1H-pyrazol-1-yl]phenyl}cyclopro-panecarboxa-mide]
535 | Cc1nc(C(F)(F)F)cn1-c1ccc(NC(=O)C2(c3ccc(OC(F)(F)F)cc3F)CC2)cc1-c1nnn[nH]1 [Example 365, 1-[2-Fluoro-4-(trifluoromethoxy)phenyl]-N-{4-[2-methyl-4-(trifluoromethyl)-1H-imidazol-1-yl]-3-(1H-tetrazol-5-yl)phenyl}cyclopro-panecarboxa-mide]
94.2 | Cc1ccc(C2(C(=O)Nc3ccc(-n4ccc(C(F)(F)F)n4)c(-c4nnn[nH]4)c3)CC2)c(F)c1 [Example 366, 1-(2-Fluoro-4-methylphenyl)-N-{3-(1H-tetrazol-5-yl)-4-[3-(trifluoromethyl)-1H-pyrazol-1-yl]phenyl}cyclopro-panecarboxa-mide]
61.2 | Cc1ccc(C2(C(=O)Nc3ccc(-n4cnc(C(F)(F)F)c4)c(-c4nnn[nH]4)c3)CC2)c(F)c1 [Example 367, 1-(2-Fluoro-4-methylphenyl)-N-{3-(1H-tetrazol-5-yl)-4-[4-(trifluoromethyl)-1H-imidazol-1-yl]phenyl}cyclopro-panecarboxa-mide]
26 | Cc1ccc(C2(C(=O)Nc3ccc(-n4cc(C(F)(F)F)cn4)c(-c4nnn[nH]4)c3)CC2)c(F)c1 [Example 368, 1-(2-Fluoro-4-methylphenyl)-N-{3-(1H-tetrazol-5-yl)-4-[4-(trifluoromethyl)-1H-pyrazol-1-yl]phenyl}cyclopro-panecarboxa-mide]
1130 | Cc1ccc(C2(C(=O)Nc3ccc(-n4cc(C(F)(F)F)nc4C)c(-c4nnn[nH]4)c3)CC2)c(F)c1 [Example 369, 1-(2-Fluoro-4-methylphenyl)-N-{4-[2-methyl-4-(trifluoromethyl)-1H-imidazol-1-yl]-3-(1H-tetrazol-5-yl)phenyl}cyclopro-panecarboxa-mide]
873 | Cc1nc(C(F)(F)F)cn1-c1ccc(NC(=O)C2(c3ccc(C(F)(F)F)cc3F)CC2)cc1-c1nnn[nH]1 [Example 370, 1-[2-Fluoro-4-(trifluoromethyl)phenyl]-N-{4-[2-methyl-4-(trifluoromethyl)-1H-imidazol-1-yl]-3-(1H-tetrazol-5-yl)phenyl}cyclopro-panecarboxa-mide]
282 | CCc1ccn(-c2ccc(NC(=O)C3(c4ccc(C)cc4F)CC3)cc2-c2nnn[nH]2)n1 [Example 371, N-[4-(3-ethyl-1H-pyrazol-1-yl)-3-(1H-tetrazol-5-yl)phenyl]-1-(2-fluoro-4-methylphenyl)cyclo-propanecar-boxamide]
31.1 | CCc1ccn(-c2ccc(NC(=O)C3(c4ccc(C(F)(F)F)cc4F)CC3)cc2-c2nnn[nH]2)n1 [Example 372, N-[4-(3-Ethyl-1H-pyrazol-1-yl)-3-(1H-tetrazol-5-yl)phenyl]-1-[2-fluoro-4-(trifluoromethyl)phenyl]cyclopro-panecarboxamide]
24.2 | CCc1ccn(-c2ccc(NC(=O)C3(c4ccc(OC(F)(F)F)cc4F)CC3)cc2-c2nnn[nH]2)n1 [Example 373, N-[4-(3-Ethyl-1H-pyrazol-1-yl)-3-(1H-tetrazol-5-yl)phenyl]-1-[2-fluoro-4-(trifluoromethoxy)phenyl]cyclo-propanecarboxa-mide]
1890 | CCc1ccn(-c2ccc(NC(=O)C3(c4cccc(Cl)c4)CC3)cc2-c2nnn[nH]2)n1 [Example 374, 1-(3-Chlorophenyl)-N-[4-(3-ethyl-1H-pyrazol-1-yl)-3-(1H-tetrazol-5-yl)phenyl]cyclopro-panecarboxa-mide]
60.6 | CCc1cnn(-c2ccc(NC(=O)C3(c4ccc(C)cc4F)CC3)cc2-c2nnn[nH]2)c1 [Example 375, N-[4-(4-Ethyl-1H-pyrazol-1-yl)-3-(1H-tetrazol-5-yl)phenyl]-1-(2-fluoro-4-methylphenyl)cy-clopropanecar-boxamide]
